Experimental data reported in patent US11365181B2, “P-phenylenediamine derivative as potassium channel regulator and preparation method and medical application thereof” (Shanghai Zhimeng Biopharma, Inc., priority 2018, dated 2022).

Legend:
[1] = Cerebral blood ratio of compound A in previous studies; assay type: in vivo; settings: brain/blood
Description: It can be seen from the results in Table 4 that after oral administration of compounds 03043 and 03044 to male SD rats, they have a good cerebral blood ratio (1.0-2.4) at each time point.

[2] = target: KCNQ2 potassium channel (CHO-KCNQ2 cells) (Homo sapiens (Human), UniProt O43526); assay: Activity test of potassium ion channel opener (FDSS/μCELL detection, FluxOR potassium ion channel assay); assay type: cell-based; settings: CHO-KCNQ2 cells, FluxOR fluorescence, FDSS/μCELL
KCNQ2 potassium channel (CHO-KCNQ2 cells), sequence (O43526 whole entry): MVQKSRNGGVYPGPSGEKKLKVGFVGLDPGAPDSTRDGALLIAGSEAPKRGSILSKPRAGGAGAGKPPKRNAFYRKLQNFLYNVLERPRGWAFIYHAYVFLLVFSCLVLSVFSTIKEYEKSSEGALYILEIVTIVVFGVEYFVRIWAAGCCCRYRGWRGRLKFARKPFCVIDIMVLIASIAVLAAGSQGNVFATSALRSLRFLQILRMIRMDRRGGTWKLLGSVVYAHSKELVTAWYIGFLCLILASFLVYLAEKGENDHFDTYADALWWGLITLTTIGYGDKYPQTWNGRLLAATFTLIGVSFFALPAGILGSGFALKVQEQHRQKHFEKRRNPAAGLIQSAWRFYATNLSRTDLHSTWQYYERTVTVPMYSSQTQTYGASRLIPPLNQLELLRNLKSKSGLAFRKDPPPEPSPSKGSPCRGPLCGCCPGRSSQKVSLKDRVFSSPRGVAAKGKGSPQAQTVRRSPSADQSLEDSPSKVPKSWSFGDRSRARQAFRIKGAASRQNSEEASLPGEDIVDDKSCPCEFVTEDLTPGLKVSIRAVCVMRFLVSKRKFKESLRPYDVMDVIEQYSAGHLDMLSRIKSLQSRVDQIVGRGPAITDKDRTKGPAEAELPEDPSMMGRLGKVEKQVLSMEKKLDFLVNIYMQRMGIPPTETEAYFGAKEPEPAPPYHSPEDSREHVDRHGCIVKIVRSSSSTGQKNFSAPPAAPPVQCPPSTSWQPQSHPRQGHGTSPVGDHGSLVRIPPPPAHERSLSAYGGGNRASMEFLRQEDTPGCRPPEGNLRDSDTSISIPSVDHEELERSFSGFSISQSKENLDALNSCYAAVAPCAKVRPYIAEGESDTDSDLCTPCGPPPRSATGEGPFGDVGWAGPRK
Description: Activity Test of Potassium Ion Channel Opener (FDSS/ρCELL Detection)
Cell preparation: CHO-KCNQ2 cells were cultured in a 175 cm^2 culture flask, and when the cells was grown to a density of 60-80%, the culture medium was removed, washed with 7 mL PBS (Phosphate Buffered Saline) once, then 3 mL 0.25% Trypsin was added to digest. After the digestion was completed, 7 mL culture medium (90% DMEM/F12+10% FBS+500 μg/mL G418) was added to neutralize, centrifugated for 3 minutes at 800 rpm. The supernatant was aspirated, then 5 mL culture medium was added to resuspend, and then the cells were counted.
Cell plating: The density to 3×10^4/well was adjusted according to the results of cell counting. After standing at room temperature for 30 minutes, the cells were placed in a 37° C. CO2 incubator and incubated overnight for 16-18 hours. The cell density reached about 80%.
Fluorescent dye incubation: The cell culture medium was discarded, 80 μL/well loading buffer was added, and the cells were incubated in dark at room temperature for 60 minutes.
Compound incubation: the loading buffer was discarded, 80 μL/well prepared compound solution was added, incubated at room temperature and in dark for 20 minutes.
Fluorescence data collection: FDSS/μCELL instrument for real-time fluorescence is used for signal recording, wherein excitation wavelength was 480 nm, emission wavelength was 540 nm, and signals were recorded 1 times per second, after baseline was recorded for 10 seconds, the addition of 20 μL/well stimulation buffer was started, and then the signal was continuously record until the end of 180 seconds.
loading buffer: 10 mL/plate, the preparation method was as follows:
Test buffer sample: 100 mL/plate, the preparation method was as follows:
Stimulation buffer: 5 mL/plate, the preparation method was as follows:
The above buffer was from a commercially available kit, the kit name was FluxOR potassium ion channel assay, the manufacturer's brand was Invitrogen, the article number was F10017, the lot number was 913728.
20 mM DMSO compound mother liquor was prepared, 10 μL of 20 mM compound mother liquor was took and added into 20 μL DMSO solution, serially diluted 3 times to 8 intermediate concentrations; then the middle concentration of the compound was took to the test buffer, 200 times dilution to get the final concentration to be tested, 80 μL was took and added to the test plate.
The highest test concentration was 100 μM, followed by […], 33.33, 11.11, 3.70, 1.23, 0.41, 0.137, 0.045 μM, total 8 concentrations. Each concentration 3 replicate holes.
This concentration of DMSO had no effect on the KCNQ2 potassium channel.
Experimental data was analyzed by Excel 2007 and GraphPad Prism 5.0 software, and the ratio of 180 seconds was calculated to calculate the excitement effect. The excitement effect of the compound is calculated by the following formula: […]
Environment: Temperature about 25° C.
Reagent: FluxOR™ Detection Kit (Invitrogen, Cat #[…])
The experimental data in the report might meet the following criteria: Z′ Factor>0.5
2. Determination Results: See Table 1 for Details, where the Smaller EC50 was, the Higher the Activity of the Corresponding Compound was.
References for the above test methods:
(2) Jinfeng Yue et al. Acta Pharmacologica Sinica, 2016, 37:105-110.

Compound `Cc1cc(N2CCc3sc(Cl)cc3C2)cc(C)c1NC(=O)CC(C)(C)C` [Compound A] has a Kp at 2 h ([1]; at 2 h) of 0.56, a Kp at 4 h ([1]; at 4 h) of 0.46 and a Kp ([1]; overall) of roughly 0.5. It also gave an EC50 [2] of 65 nM.
